Measured values from PubChem BioAssay (NCI).
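Step 1: Grow cells in 96-well plates. Step 2: Expose to compound for 48 hours at 5 concentrations. Step 3: Interpolate endpoints linearly; if unreached, use highest concentration. GI50 marks 50% less growth. TGI is the concentration that stops growth completely.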

How the values were obtained:
Assay in all cases: NCI anticancer screen, dose series, 48 h
[1] = test system: 786-0 renal
[2] = test system: OVCAR-8 ovarian
[3] = test system: HCT-15 colon
[4] = test system: OVCAR-5 ovarian
[5] = test system: HCC-2998 colon
[6] = test system: SW-620 colon
[7] = test system: MOLT-4 leukemia
[8] = test system: EKVX NSCLC
[9] = test system: A498 renal
[10] = test system: K-562 leukemia
[11] = test system: MDA-MB-435
[12] = test system: KM12 colon
[13] = test system: UACC-62 melanoma
[14] = test system: NCI/ADR-RES ovarian
[15] = test system: UO-31 renal
[16] = test system: A549 NSCLC
[17] = test system: T-47D breast
[18] = test system: LOX IMVI melanoma
[19] = test system: COLO 205 colon
[20] = test system: CCRF-CEM leukemia
[21] = test system: SK-MEL-5 melanoma
[22] = test system: NCI-H522 lung
[23] = test system: RXF 393 renal
[24] = test system: SN12C renal
[25] = test system: OVCAR-3 ovarian
[26] = test system: MDA-MB-468 breast
[27] = test system: HCT-116 colon
[28] = test system: HOP-92 NSCLC
[29] = test system: NCI-H23 lung
[30] = test system: OVCAR-4 ovarian
[31] = test system: TK-10 renal
[32] = test system: HT29 colon
[33] = test system: RPMI-8226 leukemia
[34] = test system: ACHN renal
[35] = test system: CAKI-1 renal
[36] = test system: MALME-3M melanoma
[37] = test system: HOP-62 NSCLC
[38] = test system: MDA-MB-231 breast
[39] = test system: SF-295 CNS
[40] = test system: BT-549 breast
[41] = test system: NCI-H226 lung
[42] = test system: DU-145 prostate
[43] = test system: PC-3 prostate
[44] = test system: SK-MEL-2 melanoma
[45] = test system: HS 578T breast
[46] = test system: M14 melanoma
[47] = test system: U251 CNS
[48] = test system: HL-60(TB) leukemia
[49] = test system: SF-268 CNS
[50] = test system: UACC-257 melanoma
[51] = test system: NCI-H460 lung
[52] = test system: SK-MEL-28 melanoma
[53] = test system: SNB-19 CNS
[54] = test system: IGROV1 ovarian
[55] = test system: SF-539 CNS
[56] = test system: MCF7 breast
[57] = test system: SK-OV-3 ovarian

## Clc1cccc(N/N=C/c2c[nH]c3ccc(Br)cc23)n1
[1]
  GI50: 6.61 µM
  TGI: 20.3 µM
[2]
  GI50: 5.91 µM
  TGI: 26 µM
[3]
  GI50: 3.87 µM
  TGI: 15.3 µM
[4]
  GI50: 10.2 µM
  TGI: 22.1 µM
[5]
  GI50: 4.07 µM
  TGI: 14.3 µM
[6]
  GI50: 3.22 µM
  TGI: 15.5 µM
[7]
  GI50: 0.416 µM
  TGI: 11.5 µM
[8]
  GI50: 1.6 µM
  TGI: 14.6 µM
[9]
  GI50: 17 µM
  TGI: 32.2 µM
[10]
  GI50: 2 µM
  TGI: 29.6 µM
[11]
  GI50: 2.6 µM
  TGI: 11.6 µM
[12]
  GI50: 2.69 µM
  TGI: 9.62 µM
[13]
  GI50: 0.718 µM
  TGI: 18.1 µM
[14]
  GI50: 3.08 µM
  TGI: 17.6 µM
[15]
  GI50: 0.391 µM
  TGI: 14.8 µM
[16]
  GI50: 11.7 µM
  TGI: 26.3 µM
[17]
  GI50: 3.38 µM
  TGI: 20.3 µM
[18]
  GI50: 1.22 µM
  TGI: 11 µM
[19]
  GI50: 11.8 µM
  TGI: 24.2 µM
[20]
  GI50: 0.231 µM
  TGI: 16 µM
[21]
  GI50: 10.3 µM
  TGI: 22 µM
[22]
  GI50: 1.01 µM
  TGI: 11.9 µM
[23]
  GI50: 1.23 µM
  TGI: 8.11 µM
[24]
  GI50: 0.695 µM
  TGI: 13 µM
[25]
  GI50: 2.11 µM
  TGI: 11.1 µM
[26]
  GI50: 4.42 µM
  TGI: 16.6 µM
[27]
  GI50: 4.36 µM
  TGI: 18 µM
[28]
  GI50: 1.55 µM
  TGI: 8.21 µM
[29]
  GI50: 10.2 µM
  TGI: 23.4 µM
[30]
  GI50: 6.12 µM
  TGI: 23.9 µM
[31]
  GI50: 14 µM
  TGI: 27.2 µM
[32]
  GI50: 10.8 µM
  TGI: 24 µM
[33]
  GI50: 2.2 µM
  TGI: 20.4 µM
[34]
  GI50: 6.73 µM
  TGI: 20.1 µM
[35]
  GI50: 1.29 µM
  TGI: 12.2 µM
[36]
  GI50: 11.6 µM
  TGI: 24.5 µM
[37]
  GI50: 4.28 µM
  TGI: 18.8 µM
[38]
  GI50: 1.47 µM
  TGI: 8.95 µM
[39]
  GI50: 7.12 µM
  TGI: 20.4 µM
[40]
  GI50: 0.296 µM
  TGI: 12.3 µM
[41]
  GI50: 0.416 µM
  TGI: 18 µM
[42]
  GI50: 8.12 µM
  TGI: 21 µM
[43]
  GI50: 1.25 µM
  TGI: 14 µM
[44]
  GI50: 4.85 µM
  TGI: 19.5 µM
[45]
  GI50: 2.94 µM
  TGI: 27.1 µM
[46]
  GI50: 4 µM
  TGI: 17.9 µM
[47]
  GI50: 8.5 µM
  TGI: 23.6 µM
[48]
  GI50: 2.7 µM
  TGI: 23.9 µM
[49]
  GI50: 1.85 µM
  TGI: 15.3 µM
[50]
  GI50: 12 µM
  TGI: 25.2 µM
[51]
  GI50: 3.52 µM
  TGI: 15.2 µM
[52]
  GI50: 14.2 µM
  TGI: 27.3 µM
[53]
  GI50: 10.2 µM
  TGI: 21.8 µM
[54]
  GI50: 0.349 µM
  TGI: 2.59 µM
[55]
  GI50: 1.6 µM
  TGI: 15 µM
[56]
  GI50: 3.74 µM
  TGI: 17 µM
[57]
  GI50: 2.04 µM
  TGI: 16 µM
